In BindingDB's records for patent US10308652 (Bristol-Myers Squibb, 2019):

Target: Tumor necrosis factor (Homo sapiens, UniProt P01375)
Experiment: TNF induced HEK-Blue assay
Procedure: Test compounds serially diluted in DMSO were plated in an assay plate (Labcyte, Cat. #LP-0200) at final concentrations ranging from 0.004 μM to 25μM. TNFα (final concentration 0.5 ng/ml) or CD4OL (final concentration 30 ng/ml) in assay buffer [DMEM, 4.5 g/l glucose (Gibco, Cat. 21063-029), 10% FBS (Sigma, F4135), 1% Penicillin-Streptomycin (Gibco, Cat. 15140-122), 1% Anti-Anti (Gibco, Cat. 15240-112) and 2 mM L-glutamine (Gibco, Cat. 25030-081)] was then added to the assay plate. After a 30 minute pre-incubation at 37° C. and 5% CO2, HEK-Blue-CD40L cells (InvivoGen, Cat. Code hkb-cd40) containing a NF-κB-driven secreted alkaline phosphatase reporter gene were seeded into the assay plate at a density of 20,000 cells per well. This plate was then incubated for 18 h at 37° C. and 5% CO2. Secreted alkaline phosphatase expression was measured using QUANTI-Blue (InvivoGen, Cat. Code rep-qb1) according to manufacturer's specifications and the assay plate was read on a PerkinElmer Envision at 620 nm.

Chain of Tumor necrosis factor (P01375 whole entry): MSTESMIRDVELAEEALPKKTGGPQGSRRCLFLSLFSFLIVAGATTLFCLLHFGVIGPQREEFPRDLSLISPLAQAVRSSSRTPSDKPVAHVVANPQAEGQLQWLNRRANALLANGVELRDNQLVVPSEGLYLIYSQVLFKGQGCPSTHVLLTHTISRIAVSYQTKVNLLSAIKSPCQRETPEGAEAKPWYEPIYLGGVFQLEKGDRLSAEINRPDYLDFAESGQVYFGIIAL

With `CC(C)(O)c1ccc(-c2ccc3nc4c(n3n2)[C@@H](c2ccccc2OC(F)F)NC[C@H]4O)cc1` [US10308652, Example 6] the IC50 was < 1000 nM.
